According to ChEMBL document CHEMBL4406807, “Discovery of 3,4,6-Trisubstituted Piperidine Derivatives as Orally Active, Low hERG Blocking Akt Inhibitors via Conformational Restriction and Structure-Based Design” (J Med Chem, 2019):

How the values were obtained:
[1] = Microsomal stability in mouse liver microsomes assessed as compound remaining at 100 ug/ml in presence of NADPH measured at 1.5 hrs by LC/MS analysis; format: ADME, Microsome; settings: read-out: Stability
[2] = Microsomal stability in dog liver microsomes assessed as compound remaining at 100 ug/ml in presence of NADPH measured at 1.5 hrs by LC/MS analysis; format: ADME, Canis lupus familiaris, Microsome; settings: read-out: Stability
LNCaP = assay: Antiproliferative activity against human LNCAP cells; format: functional, cell-based
[3] = target: RAC-beta serine/threonine-protein kinase (Homo sapiens, UniProt P31751); assay: Inhibition of human Akt2 by mobile shift assay
[4] = target: RAC-gamma serine/threonine-protein kinase (Homo sapiens, UniProt Q9Y243); assay: Inhibition of Akt3 (unknown origin) by mobile shift assay
[5] = Inhibition of recombinant His-tagged human PKA expressed in Escherichia coli using Ser/Thr 01 as substrate after 1 hr by Z-lyte assay
Protein kinase C (PKC) = assay: Inhibition of PKC (unknown origin); format: protein assay, Homo sapiens
[6] = target: Rho-associated protein kinase 1 (Homo sapiens, UniProt Q13464); assay: Inhibition of human ROCK1 by mobile shift assay
[7] = target: Ribosomal protein S6 kinase alpha-1 (Homo sapiens, UniProt Q15418); assay: Inhibition of RSK1 (unknown origin) by mobility shift assay
[8] = target: Ribosomal protein S6 kinase beta-1 (Homo sapiens, UniProt P23443); assay: Inhibition of human P70S6K by mobility shift assay
[9] = Tmax in ICR mouse at 40 mg/kg, ig measured up to 48 hrs by LC-MS/MS analysis; format: ADME, organism-based; settings: in vivo, po
[10] = Half-life in ICR mouse at 40 mg/kg, ig measured up to 48 hrs by LC-MS/MS analysis; format: ADME, organism-based; settings: in vivo, po
[11] = Cmax in ICR mouse at 40 mg/kg, ig measured up to 48 hrs by LC-MS/MS analysis; format: ADME, organism-based; set-up: dose 40 mg/kg, route […]; settings: in vivo, po
[12] = Clearance in ICR mouse at 40 mg/kg, ig measured up to 48 hrs by LC-MS/MS analysis; format: ADME, organism-based; settings: in vivo, po
[13] = AUC (0 to t) in ICR mouse at 40 mg/kg, ig measured up to 48 hrs by LC-MS/MS analysis; format: ADME, organism-based; set-up: time < 48 hr, dose 40 mg/kg, route […]; settings: in vivo, po
[14] = MRT (0 to t) in ICR mouse at 40 mg/kg, ig measured up to 48 hrs by LC-MS/MS analysis; format: ADME, organism-based; settings: in vivo, po
[15] = MRT (0 to infinity) in ICR mouse at 40 mg/kg, ig measured up to 48 hrs by LC-MS/MS analysis; format: ADME, organism-based; settings: in vivo, po
[16] = Protein binding in mouse plasma at 300 ng/ml after 8 hrs by equilibrium dialysis; format: ADME, cell-free; settings: read-out: PPB (converted)
[17] = Tmax in Sprague-Dawley rat at 40 mg/kg, ig measured up to 24 hrs by LC-MS/MS analysis; format: ADME, organism-based; settings: in vivo, po
[18] = Cmax in Sprague-Dawley rat at 40 mg/kg, ig measured up to 24 hrs by LC-MS/MS analysis; format: ADME, organism-based; set-up: dose 40 mg/kg, route […]; settings: in vivo, po
[19] = AUC (0 to t) in Sprague-Dawley rat at 40 mg/kg, ig measured up to 24 hrs by LC-MS/MS analysis; format: ADME, organism-based; set-up: time < 24 hr, dose 40 mg/kg, route […]; settings: in vivo, po
[20] = AUC (0 to infinity) in Sprague-Dawley rat at 40 mg/kg, ig measured up to 24 hrs by LC-MS/MS analysis; format: ADME, organism-based; set-up: dose 40 mg/kg, route […], time infinity; settings: in vivo, po
[21] = MRT (0 to t) in Sprague-Dawley rat at 40 mg/kg, ig measured up to 24 hrs by LC-MS/MS analysis; format: ADME, organism-based; settings: in vivo, po
[22] = MRT (0 to infinity) in Sprague-Dawley rat at 40 mg/kg, ig measured up to 24 hrs by LC-MS/MS analysis; format: ADME, organism-based; settings: in vivo, po
[23] = Volume of distribution in Sprague-Dawley rat at 40 mg/kg, ig measured up to 24 hrs by LC-MS/MS analysis; format: ADME, organism-based; settings: in vivo, po
SK-OV-3 [24] = assay: Induction of apoptosis in human SKOV3 cells at 0.4 uM by FACS based flow cytometric analysis (reference value: 7.63%); format: functional
[25] = Toxicity in ICR mouse assessed as maximum tolerated dose, ig administered once daily for 7 days; settings: in vivo, po
[26] = Toxicity in ICR mouse assessed as effect on serum hematology at 80 to 160 mg/kg, ig; format: organism-based; settings: in vivo, po
[27] = Toxicity in ICR mouse assessed as effect on biochemical parameter at 80 to 160 mg/kg, ig; format: organism-based; settings: in vivo, po
SK-OV-3 [28] = assay: Antitumor activity against human SKOV3 cells xenografted in BALB/c nude mouse assessed as tumor growth inhibition at 40 mg/kg, po BID for 21 days; format: functional; settings: SK-OV-3, po, 504 h, read-out: TGI
SK-OV-3 [29] = assay: Antitumor activity against human SKOV3 cells xenografted in BALB/c nude mouse assessed as tumor growth inhibition at 80 mg/kg, po administered once daily for 21 days relative to control; format: functional; settings: SK-OV-3, po, 504 h, read-out: TGI
[30] = Toxicity in BALB/c nude mouse xenografted with human SKOV3 cells assessed as reduction in mouse survival at 40 mg/kg, po BID for 21 days; format: organism-based; settings: in vivo, 504 h
[31] = Toxicity in BALB/c nude mouse xenografted with human SKOV3 cells assessed as reduction in mouse survival at 60 to 80 mg/kg, po administered once daily for 21 days; format: organism-based; settings: in vivo, 504 h
[32] = target: Inward rectifier potassium channel 2 (Homo sapiens, UniProt P63252); assay: Inhibition of Kir2.1 (unknown origin) at 3 uM relative to control
[33] = target: Potassium voltage-gated channel subfamily A member 2 (Homo sapiens, UniProt P16389); assay: Inhibition of Kv1.2 (unknown origin) at 3 uM relative to control
[34] = target: Potassium voltage-gated channel subfamily A member 10 (Homo sapiens, UniProt Q16322); assay: Inhibition of Kv1.8 (unknown origin) at 3 uM relative to control
[35] = target: Potassium voltage-gated channel subfamily A member 5 (Homo sapiens, UniProt P22460); assay: Inhibition of Kv1.5 (unknown origin) at 3 uM relative to control
[36] = target: Potassium voltage-gated channel subfamily A member 6 (Homo sapiens, UniProt P17658); assay: Inhibition of Kv1.6 (unknown origin) at 3 uM relative to control
[37] = target: Potassium/sodium hyperpolarization-activated cyclic nucleotide-gated channel 4 (Homo sapiens, UniProt Q9Y3Q4); assay: Inhibition of HCN4 (unknown origin) at 3 uM relative to control
[38] = Toxicity in ICR mouse assessed as reduction in organ to brain weight ratio of thymus at 80 to 160 mg/kg, ig once daily for 7 days; format: organism-based; settings: in vivo, po, 168 h
[39] = Toxicity in BALB/c nude mouse xenografted with human SKOV3 cells assessed as effect on body weight at 40 mg/kg, po BID for 21 days; format: organism-based; settings: in vivo, 504 h
[40] = target: RAC-alpha serine/threonine-protein kinase (Homo sapiens, UniProt P31749)
Description: Inhibition of human Akt1 expressed in Escherichia coli using STK Substrate 2-biotin as substrate incubated for 1 hr by HTRF assay

HCT-116 = assay: cells; settings: Homo sapiens, HCT-116, 72 h

Chain of Inward rectifier potassium channel 2 (P63252 whole entry): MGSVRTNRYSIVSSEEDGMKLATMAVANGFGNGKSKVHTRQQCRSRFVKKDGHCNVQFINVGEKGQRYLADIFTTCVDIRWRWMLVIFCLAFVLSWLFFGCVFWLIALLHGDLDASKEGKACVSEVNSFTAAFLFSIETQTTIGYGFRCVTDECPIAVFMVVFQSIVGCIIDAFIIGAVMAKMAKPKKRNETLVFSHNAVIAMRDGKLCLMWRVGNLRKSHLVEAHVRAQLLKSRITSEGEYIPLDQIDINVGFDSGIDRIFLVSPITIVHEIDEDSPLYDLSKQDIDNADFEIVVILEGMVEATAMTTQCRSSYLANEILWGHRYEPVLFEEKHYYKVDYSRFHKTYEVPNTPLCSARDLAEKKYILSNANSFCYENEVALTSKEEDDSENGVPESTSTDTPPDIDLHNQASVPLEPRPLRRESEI
Chain of Potassium voltage-gated channel subfamily A member 5 (P22460 whole entry): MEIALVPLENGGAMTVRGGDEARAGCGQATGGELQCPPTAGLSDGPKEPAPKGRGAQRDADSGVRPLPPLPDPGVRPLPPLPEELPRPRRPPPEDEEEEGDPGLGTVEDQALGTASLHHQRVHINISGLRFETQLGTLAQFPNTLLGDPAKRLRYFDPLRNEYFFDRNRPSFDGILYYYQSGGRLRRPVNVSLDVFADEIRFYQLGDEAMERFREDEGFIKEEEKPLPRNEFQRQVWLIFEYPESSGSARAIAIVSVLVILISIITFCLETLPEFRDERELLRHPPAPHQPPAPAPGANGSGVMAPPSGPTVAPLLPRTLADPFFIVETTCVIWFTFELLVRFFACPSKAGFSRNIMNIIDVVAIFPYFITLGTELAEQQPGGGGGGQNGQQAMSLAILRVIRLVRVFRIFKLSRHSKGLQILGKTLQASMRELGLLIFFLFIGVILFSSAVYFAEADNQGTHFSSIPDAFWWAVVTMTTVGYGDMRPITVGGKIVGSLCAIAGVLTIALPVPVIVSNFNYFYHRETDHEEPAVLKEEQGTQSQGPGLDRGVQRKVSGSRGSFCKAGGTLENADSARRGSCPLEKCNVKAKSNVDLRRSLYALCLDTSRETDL
Chain of RAC-gamma serine/threonine-protein kinase (Q9Y243 whole entry): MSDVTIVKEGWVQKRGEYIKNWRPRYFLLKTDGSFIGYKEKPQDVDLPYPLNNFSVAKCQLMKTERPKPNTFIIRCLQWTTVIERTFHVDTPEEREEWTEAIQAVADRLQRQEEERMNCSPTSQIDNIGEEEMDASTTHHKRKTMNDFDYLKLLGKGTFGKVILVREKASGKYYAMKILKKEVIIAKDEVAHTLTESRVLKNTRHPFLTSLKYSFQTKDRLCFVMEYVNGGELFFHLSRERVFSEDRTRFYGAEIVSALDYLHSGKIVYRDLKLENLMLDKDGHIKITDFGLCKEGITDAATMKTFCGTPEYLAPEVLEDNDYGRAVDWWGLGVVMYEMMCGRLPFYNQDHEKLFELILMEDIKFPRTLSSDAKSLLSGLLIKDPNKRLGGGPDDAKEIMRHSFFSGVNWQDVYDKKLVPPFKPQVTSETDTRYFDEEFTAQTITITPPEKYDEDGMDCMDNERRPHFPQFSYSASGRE
Chain of Potassium voltage-gated channel subfamily A member 10 (Q16322 whole entry): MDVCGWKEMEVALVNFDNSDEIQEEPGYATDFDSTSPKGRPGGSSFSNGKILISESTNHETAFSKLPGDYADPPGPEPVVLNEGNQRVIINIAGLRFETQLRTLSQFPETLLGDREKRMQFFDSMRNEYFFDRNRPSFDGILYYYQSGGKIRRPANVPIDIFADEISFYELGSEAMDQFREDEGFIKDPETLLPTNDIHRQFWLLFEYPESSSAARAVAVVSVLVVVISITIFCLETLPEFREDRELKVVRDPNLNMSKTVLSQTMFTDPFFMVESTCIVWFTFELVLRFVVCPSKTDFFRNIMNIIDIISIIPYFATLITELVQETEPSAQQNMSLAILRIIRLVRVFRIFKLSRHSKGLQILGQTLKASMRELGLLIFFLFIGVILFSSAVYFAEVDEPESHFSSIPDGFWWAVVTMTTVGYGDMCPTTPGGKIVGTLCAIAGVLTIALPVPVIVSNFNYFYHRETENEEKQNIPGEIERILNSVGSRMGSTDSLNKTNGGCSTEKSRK
Chain of RAC-alpha serine/threonine-protein kinase (P31749 whole entry): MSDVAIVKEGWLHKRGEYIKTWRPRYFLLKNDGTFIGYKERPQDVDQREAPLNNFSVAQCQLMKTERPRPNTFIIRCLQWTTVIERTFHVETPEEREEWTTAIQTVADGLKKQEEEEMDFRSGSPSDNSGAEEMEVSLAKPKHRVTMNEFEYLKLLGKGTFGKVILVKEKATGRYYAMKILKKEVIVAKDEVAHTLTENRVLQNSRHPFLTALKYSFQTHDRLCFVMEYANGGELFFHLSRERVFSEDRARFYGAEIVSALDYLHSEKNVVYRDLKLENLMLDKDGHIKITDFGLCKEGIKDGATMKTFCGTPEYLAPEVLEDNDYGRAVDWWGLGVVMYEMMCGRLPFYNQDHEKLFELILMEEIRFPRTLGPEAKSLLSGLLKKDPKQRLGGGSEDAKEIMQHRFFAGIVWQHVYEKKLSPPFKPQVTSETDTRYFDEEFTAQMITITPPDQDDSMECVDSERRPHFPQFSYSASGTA
Chain of Rho-associated protein kinase 1 (Q13464 whole entry): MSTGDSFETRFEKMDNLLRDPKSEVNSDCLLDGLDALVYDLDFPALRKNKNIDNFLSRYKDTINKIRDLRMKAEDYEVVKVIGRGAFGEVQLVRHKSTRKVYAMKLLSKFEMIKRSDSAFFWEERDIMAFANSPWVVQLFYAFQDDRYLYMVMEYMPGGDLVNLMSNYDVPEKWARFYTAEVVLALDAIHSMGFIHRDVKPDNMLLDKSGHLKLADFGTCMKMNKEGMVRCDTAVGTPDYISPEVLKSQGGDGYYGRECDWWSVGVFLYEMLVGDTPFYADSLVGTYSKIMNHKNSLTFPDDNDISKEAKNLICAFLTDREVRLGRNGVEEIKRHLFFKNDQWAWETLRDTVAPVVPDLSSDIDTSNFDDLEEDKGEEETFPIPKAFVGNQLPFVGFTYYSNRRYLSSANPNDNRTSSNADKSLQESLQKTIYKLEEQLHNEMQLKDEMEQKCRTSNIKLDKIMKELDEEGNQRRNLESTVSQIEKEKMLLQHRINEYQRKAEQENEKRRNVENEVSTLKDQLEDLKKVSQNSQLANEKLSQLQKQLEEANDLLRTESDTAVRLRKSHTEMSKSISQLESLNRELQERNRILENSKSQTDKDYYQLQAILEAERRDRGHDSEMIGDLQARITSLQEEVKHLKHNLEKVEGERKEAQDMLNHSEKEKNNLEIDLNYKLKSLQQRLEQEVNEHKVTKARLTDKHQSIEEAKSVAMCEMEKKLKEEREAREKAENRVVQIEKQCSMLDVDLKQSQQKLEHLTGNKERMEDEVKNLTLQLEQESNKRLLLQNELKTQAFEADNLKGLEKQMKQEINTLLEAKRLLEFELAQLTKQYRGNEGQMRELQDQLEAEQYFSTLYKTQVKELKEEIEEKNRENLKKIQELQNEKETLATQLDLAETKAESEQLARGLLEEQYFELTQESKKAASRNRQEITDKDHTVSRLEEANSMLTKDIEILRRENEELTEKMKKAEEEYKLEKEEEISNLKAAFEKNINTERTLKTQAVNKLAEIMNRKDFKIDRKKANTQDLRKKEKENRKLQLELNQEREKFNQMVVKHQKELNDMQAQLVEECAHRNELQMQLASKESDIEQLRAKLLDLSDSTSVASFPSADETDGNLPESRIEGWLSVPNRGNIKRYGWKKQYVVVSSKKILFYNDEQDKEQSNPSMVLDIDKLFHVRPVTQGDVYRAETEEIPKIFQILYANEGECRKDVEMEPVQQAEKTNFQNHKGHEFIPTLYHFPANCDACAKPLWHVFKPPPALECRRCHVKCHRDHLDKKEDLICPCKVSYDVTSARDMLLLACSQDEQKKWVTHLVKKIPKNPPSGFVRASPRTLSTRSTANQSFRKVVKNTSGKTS
Chain of Ribosomal protein S6 kinase alpha-1 (Q15418 whole entry): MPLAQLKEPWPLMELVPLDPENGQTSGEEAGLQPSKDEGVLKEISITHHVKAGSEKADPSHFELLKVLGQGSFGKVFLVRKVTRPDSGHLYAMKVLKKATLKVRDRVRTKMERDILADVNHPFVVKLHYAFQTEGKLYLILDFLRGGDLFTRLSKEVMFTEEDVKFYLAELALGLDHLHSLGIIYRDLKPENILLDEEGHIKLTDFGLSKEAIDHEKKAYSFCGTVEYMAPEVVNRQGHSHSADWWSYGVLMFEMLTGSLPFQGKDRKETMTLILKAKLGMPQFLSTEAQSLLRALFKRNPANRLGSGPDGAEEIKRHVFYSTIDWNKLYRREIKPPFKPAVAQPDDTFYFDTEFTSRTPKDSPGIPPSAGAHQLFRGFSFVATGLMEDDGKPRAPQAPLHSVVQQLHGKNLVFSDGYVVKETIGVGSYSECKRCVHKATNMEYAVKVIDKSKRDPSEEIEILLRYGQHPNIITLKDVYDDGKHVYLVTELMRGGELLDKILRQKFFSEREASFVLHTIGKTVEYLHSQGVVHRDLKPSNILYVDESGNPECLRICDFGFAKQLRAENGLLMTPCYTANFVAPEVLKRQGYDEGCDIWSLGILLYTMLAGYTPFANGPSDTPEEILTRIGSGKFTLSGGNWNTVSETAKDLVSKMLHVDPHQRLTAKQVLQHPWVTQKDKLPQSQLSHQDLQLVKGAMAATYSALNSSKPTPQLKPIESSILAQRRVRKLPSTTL

CNC(=O)C[C@@H]1C[C@@H](c2ccc(F)c(F)c2)[C@H](NC(=O)c2cc(-c3c(Cl)cnn3C)c(Cl)o2)CN1
remaining at 1.5 h, 100 ug/ml [1]: > 99%
remaining at 1.5 h, 100 ug/ml [2]: 96%
IC50 (LNCaP): 50 nM
IC50 [3]: 1.2 nM
IC50 [4]: 1.7 nM
IC50 [5]: 0.3 nM
IC50 (Protein kinase C (PKC)): 94 nM
IC50 [6]: 64 nM
IC50 [7]: 131 nM
IC50 [8]: 8.9 nM
Tmax [9]: 1 h
half-life [10]: 3.3 h
Cmax [11]: 3620 ng/mL
CL/F [12]: 31.7 mL/min/kg
AUC(0-t) at 48 h [13]: 21100 ng·h/mL
MRT last at 48 h [14]: 5.2 h
MRT inf [15]: 5.3 h
fraction unbound at 8 h, 300 ng/ml [16]: 0.07
Tmax [17]: 1.8 h
Cmax [18]: 407 ng/mL
AUC(0-t) at 24 h [19]: 2440 ng·h/mL
AUC(0-inf) [20]: 3090 ng·h/mL
MRT last at 24 h [21]: 5.8 h
MRT inf [22]: 11.4 h
Vd [23]: 147.2 L/kg
Activity (SK-OV-3 [24]): 39.88%
MTD at 168 h [25]: ≥ 80 mg/kg
Activity [26]: Non-Toxic
Activity [27]: Non-Toxic
inhibition in vivo at 40 mg/kg (SK-OV-3 [28]): 82.5%
inhibition in vivo at 80 mg/kg (SK-OV-3 [29]): 90%
Activity [30]: Non-Toxic
Activity [31]: Non-Toxic
inhibition (INH) [32]: Not Active
inhibition (INH) [33]: Not Active
inhibition (INH) [34]: Not Active
inhibition (INH) [35]: Not Active
inhibition (INH) [36]: Not Active
inhibition (INH) [37]: Not Active
Activity [38]: Toxic
Activity [39]: Non-Toxic
IC50 [40]: 1.37 nM
IC50 (HCT-116): 1100 nM
